Results reported in patent US20250268971A1, “SAFFRON AS ANTI-INFLAMMATORY AGENT IN TREATING INFLAMMATORY BOWEL DISEASE” (HOWARD UNIVERSITY, priority 2020, published 2025).

Tested on: human PBMCs T cells
Experiment: Human PBMCs T cells pro-inflammatory cytokine secretion (flow cytometry)
Format: cell-based
Method: A 48 well plate was coated with human anti-CD3 antibody (1 μg/ml) overnight. After washing with 1×PBS, plates were coated with human PBMCs (0.5×10^6 cells/well), human anti-CD28 (1 μg/ml), β-mercaptoethanol (1 μg/ml), different concentrations of Saffron aqueous extract (250 μg/ml, 500 μg/ml) and other constituents of saffron, Safranal (500 μM, 1 mM) (Sigma Aldrich, USA). The human PBMCS of 0.5×10^6 cells/well PBMCs were seeded in 48 well microplates in RPMI-1640 (Sigma, USA) supplemented with 10% fetal bovine serum and 1% penicillin/streptomycin at 37° C. and in 5% CO2) (day 0). At day 3, cells were stimulated with phorbol myristate acetate (PMA; 50 ng/ml)+ Ionomycin (1 μg/ml)+ Brefeldin A (1X) for 4 hrs. and cells were harvested and stained for flow cytometry. The human specific antibodies for T cells (dye; Zombi Aqua, CD45 PerCP 5.5, CD3 BV421, CD4 PETR, CD127-PECy7, CD25 BV605, CD8a AF488 and pro-inflammatory cytokines, like TNF-α AF700, IFNg APC, IL4 PE) were used to stain the PBMC cells.
In CD8+ T cells, TNFα+ expression was reduced in presence of SFE dose 500 μg/ml and safranal doses (500 μM, 1 mM) only, while IFNg+ expression was reduced in all tested doses of SFE and safranal in comparison to stimulated human PBMCs treated with media.

## CC1=C(C=O)C(C)(C)CC=C1 [safranal, Safranal]
SFE 500 μg/ml only, safranal 500 μM, 1 mM, vs media treated stimulated PBMC
  TNFα+ expression in CD8+ T cells: reduced
SFE 250 and 500 μg/ml, safranal 500 μM, 1 mM, anti-CD3/CD28, PMA+ionomycin stimulated, vs media
  TNFα+ in CD4+ T cells: inhibitory response
SFE 250 and 500 μg/ml, safranal 500 μM, 1 mM, vs media treated stimulated PBMC
  IFNg+ in CD4+ T cells: inhibitory response
All tested doses (SFE 250, 500 μg/ml; safranal 500 μM, 1 mM), vs media
  IFNg+ expression in CD8+ T cells: reduced
